{
  "source": "patent US20100160209A1",
  "about": "“Composition and Method for Increasing Cell Permeability of a Compound” (SmithKline Beecham Corporation, priority 2006, published 2010)",
  "key": {"[1]": {"assay": "solubility in aqueous solutions", "format": "physicochemical", "details": "for CPS-Cys particularly in slightly acidic pH", "from_the_text": "(§1) Initial synthesis was of the 11-mer CPS peptide in which its C-terminal end was an N-hydroxysuccinimide (NHS) ester. This CPS-OSu peptide was expected to be highly reactive to the amine groups of human insulin and thus facilitate the conjugation reactions between CPS and Insulin. […] As a result, this CPS-OSu activated ester was cyclized via an internal amide bond. To overcome this side-reaction, a derivative of the CPS-OSu peptide in which all three amine groups of this peptide were protected by a Boc group (tert-Butyloxycarbonyl) was also made.\n(§2) The 12-mer CPS-Cys peptide Sequence of CPS-Cys Peptide: K-L-K-L-A-L-A-L-A-L-A-C (Seq ID no. 2) was synthesized by conventional solid-phase peptide synthesis methodology. Standard synthesis protocols based on Fmoc chemistry were used. After synthesis, the crude peptides were cleaved from the solid support and purified by C18 reverse-phase HPLC eluted with acetonitrile aqueous buffers. The purified peptide was characterized by analytical HPLC analysis (FIG. 2, top panel) and mass spectrometry analysis (FIG. 2a, bottom panel, calculated MW=1227.6 Da and measured MW (MH+)=1227.9 Da)."}, "stability of the peptide": {"assay": "stability of the peptide", "format": "physicochemical", "details": "CPS-OSu: reacts with its own amine groups, cyclized via internal amide bond", "from_the_text": "as §1, §2"}, "CCK-releasing cells": {"system": "CCK-releasing cells", "details": "\"is said to elicit\"; assay of WO 01/41812; cited from earlier work"}},
  "note": "Ends that are not written are not given here. Peptide text beside a SMILES is read from it. * marks the point of attachment. Boc = CC(C)(C)OC(=O)*; OSu = O=C1CCC(=O)N1O*",
  "data": [
    {"compound": "CC(C)C[C@H](NC(=O)[C@H](C)NC(=O)[C@H](CC(C)C)NC(=O)[C@H](CCCCNC(=O)OC(C)(C)C)NC(=O)[C@H](CC(C)C)NC(=O)[C@H](CCCCNC(=O)OC(C)(C)C)NC(=O)OC(C)(C)C)C(=O)N[C@@H](C)C(=O)N[C@@H](CC(C)C)C(=O)N[C@@H](C)C(=O)N[C@@H](CC(C)C)C(=O)N[C@@H](C)C(=O)ON1C(=O)CCC1=O", "note": "[amine-protected peptide] (Boc-K(Boc)LK(Boc)LALALALA-OSu)", "values": [
      {"measurement": "solubility in aqueous solutions", "setting": "[1]", "value": "poor solubility"}
    ]},
    {"compound": "KLKLALALALAC [CPS-Cys peptide, K-L-K-L-A-L-A-L-A-L-A-C]", "values": [
      {"measurement": "solubility in aqueous solutions", "setting": "[1]", "value": "good solubility"},
      {"measurement": "stability of the peptide", "setting": "stability of the peptide", "value": "stable"}
    ]},
    {"compound": "STFWAYQPDGDNDPTDYQKYEHTSSPSQLLAPGDYPCVIEV (listed as Homo sapiens) [Native LCRF, luminal cholecystokinin releasing factor]", "values": [
      {"measurement": "increase in CCK secretion", "setting": "CCK-releasing cells", "value": "~300", "unit": "%"}
    ]}
  ]
}
